In the test the test system is trigemino-vascular system. Briefly: Trigeminal nerve model in anaesthetised cats (TGN stimulation-induced reduction in carotid vascular resistance). Type of test: in vivo, cat. The following applies: for % Change in TGN-reduction in carotid vascular resistance at 4 hours following continuous iv infusion (mean ± sem) / % Changes of TGW-induced reduction in carotid vascular resistance 3 hours (mean ± sem): anaesthetised cat. The protocol: Trigeminal nerve model in anaesthetised cats
Cats were anaesthetised with α-chloralose (90-110 mg/kg i.v.) and artificially respired with room air. Body temperature was maintained at 37-38 C. A femoral artery was cannulated for recording of blood pressure and heart rate. Arterial blood flow was recorded by a Doppler flow probe placed around the right common carotid artery. Bipolar stainless electrodes were stereotaxically placed into each trigeminal ganglion. Guanethidine (3 mg/kg i.v.) was then administered and 45 min allowed for stabilisation. […]

The mark [1] stands for this setting: continuous iv infusion 3.4 μmol/h, at 4 hours.
Where [2] appears, read: intraduodenal administration 10 mg.kg, after 3 hours.
[3] abbreviates: intravenous administration at 3.4 μmol/h, at 4 hours.

With `CC(=O)c1ccc2c(c1)[C@H](NC(=O)c1ccc(F)cc1)[C@@H](O)C(C)(C)O2` (relative stereo) [Compound 1, trans-6-acetyl-4S-(4-fluorobenzoylamino)-3,4-dihydro-2,2-dimethyl-2H-1-benzopyran-3R-ol], the “% Change in TGN-reduction in carotid vascular resistance at 4 hours following continuous iv infusion (mean ± sem)” value under setting [1] is recorded as −29.1 ± 3.7 %. For the same compound, the “% Changes of TGW-induced reduction in carotid vascular resistance 3 hours (mean ± sem)” value (intraduodenal 10 mg/kg in labrasol) is −43 ± 12.9 %. The “inhibition of TGN-induced reduction in carotid vascular resistance (in words)” value (shortened to “inhibition of TGN-induced reduction”) under setting [2] is reported as “significant inhibition” and the “inhibition of TGN-induced reduction” value under setting [3] is given as “significant inhibition”.

On to `CC(=O)c1ccc2c(c1)[C@H](NC(=O)c1ccc(F)c(Cl)c1)[C@H](O)C(C)(C)O2` (relative stereo) [Compound 2, cis-6-acetyl-4S-(3-chloro-4-fluorobenzoylamino)-3,4-dihydro-2,2-dimethyl-2H-1-benzopyran-3S-ol], for which the “% Change in TGN-reduction in carotid vascular resistance at 4 hours following continuous iv infusion (mean ± sem)” value was −30.0 ± 6.6 % under setting [1] and −21.8 ± 14 % (continuous iv infusion 11 μmol/h, at 4 hours). Besides, the “% Changes of TGW-induced reduction in carotid vascular resistance 3 hours (mean ± sem)” value (intraduodenal 10 mg/kg in methylcellulose) is given as −69%. Moreover, the “inhibition of TGN-induced reduction” value is, setting by setting: under setting [2], “significant inhibition”; under setting [3], “significant inhibition”.

On to `CC(=O)c1ccc2c(c1)[C@H](NC(=O)c1cc(F)cc(F)c1)[C@@H](O)C(C)(C)O2` (relative stereo) [Compound 3, trans-6-acetyl-4S-(3,5-difluorobenzoylamino)-3,4-dihydro-2,2-dimethyl-2H-1-benzopyran-3R-ol], for which, for the setting “guanethidine treated anaesthetised cat”, the “effects on TGN stimulation-induced reductions in carotid vascular resistance (in words)” value is listed as “marked effects”. The “inhibition of trigeminal nerve mediated responses” value (guanethidine treated anaesthetised cat, intraduodenal bolus 10 mg/kg, 2 hours post administration, n=4) came to 77%.

These data come from US20020010209A1, “Use of benzopyranols to treat neurological disorders” (priority 1996, published 2002).
